Data from ChEMBL document CHEMBL1146366, “Synthesis and antigenotoxic activity of some naphtho[2,1-b]pyrano[3,2-e][1,2,4]triazolo[1,5-c]pyrimidine derivatives” (Eur J Med Chem, 2007).

Columns and labels:
Escherichia coli [1] = assay: Genotoxicity in Escherichia coli PQ37 assessed as ratio of beta-galactosidase/AP activity in presence and absence of drug at 50 ug; format: toxicity, organism-based
Escherichia coli [2] = assay: Inhibition of nifuroxazide-induced genotoxicity in Escherichia coli PQ37 at 10 ug by SOS chromotest; format: functional
Escherichia coli [3] = assay: Genotoxicity in Escherichia coli PQ37 assessed as ratio of beta-galactosidase/AP activity in presence and absence of drug at 2 ug; format: toxicity, organism-based
Escherichia coli [4] = assay: Genotoxicity in Escherichia coli PQ37 assessed as ratio of beta-galactosidase/AP activity in presence and absence of drug at 10 ug; format: toxicity, organism-based
Escherichia coli [5] = assay: Inhibition of nifuroxazide-induced genotoxicity in Escherichia coli PQ37 at 50 ug by SOS chromotest; format: functional
Escherichia coli [6] = assay: Inhibition of nifuroxazide-induced genotoxicity in Escherichia coli PQ37 at 2 ug by SOS chromotest; format: functional
Escherichia coli [7] = assay: Genotoxicity in Escherichia coli PQ37 assessed as ratio of beta-galactosidase/AP activity in presence and absence of drug at 5 ug; format: toxicity, organism-based

| Structure (SMILES) | Ratio (Escherichia coli [1]) | Inhibition (Escherichia coli [2]) [%] | Ratio (Escherichia coli [3]) | Ratio (Escherichia coli [4]) | Inhibition (Escherichia coli [5]) [%] | Inhibition (Escherichia coli [6]) [%] | Ratio (Escherichia coli [7]) |
| --- | --- | --- | --- | --- | --- | --- | --- |
| c1ccc(-c2nc3c4c(ncn3n2)Oc2ccc3ccccc3c2C4c2ccco2)cc1 (stereo not drawn) | 1.3 | 99 | 1.3 | 1.4 | 75 | 99 |  |
| Cc1nc2c3c(ncn2n1)Oc1ccc2ccccc2c1C3C(C)C (stereo not drawn) | 1.39 | 98 | 1.01 | 1.1 | 95 | 99 |  |
| Clc1ccccc1C1c2c(ccc3ccccc23)Oc2ncn3nc(-c4ccccc4)nc3c21 (stereo not drawn) | 1.62 | 60 | 1.16 | 1.21 | 48 | 64 |  |
| O=C(N/N=C/c1ccc([N+](=O)[O-])o1)c1ccc(O)cc1 [NIFUROXAZIDE] |  |  |  |  |  |  | 12.88 |
| CC(C)C1c2c(ccc3ccccc23)Oc2ncn3nc(-c4ccccc4)nc3c21 (stereo not drawn) | 1.25 | 61 | 1.11 | 1.19 | 63 | 62 |  |
| Cc1nc2c3c(ncn2n1)Oc1ccc2ccccc2c1C3c1ccccc1 (stereo not drawn) | 1.56 | 61 | 1.12 | 1.32 | 56 | 70 |  |
| c1ccc(-c2nc3c4c(ncn3n2)Oc2ccc3ccccc3c2C4c2ccccc2)cc1 (stereo not drawn) | 1.4 | 86 | 1.02 | 1.24 | 99 | 78 |  |
| Clc1ccc(C2c3c(ccc4ccccc34)Oc3ncn4nc(-c5ccccc5)nc4c32)cc1 (stereo not drawn) | 1.67 | 38 | 1.44 | 1.33 | 48 | 32 |  |
